Measurements taken from patent publication US7442706B2, “Methods for treating sarcopenia with a growth hormone secretagogue” (priority 2006, dated 2008).

What was measured:
[1] = Monitoring for adverse effects, PSA, mammograms, pap smears, routine laboratory tests; assay type: in vivo, human
Description: Healthy men and women 60 years and older were eligible to participate. A schematic of the study design and details of subject inclusion/exclusion criteria, screening, enrollment, and attrition are shown in FIG. 1. Volunteers were carefully screened by medical history and physical examination to rule out underlying disease and extensive laboratory testing was performed before and frequently throughout the study. Participants were asked to maintain their typical diet and exercise throughout the study and to report any illnesses, medical procedures or side effects. Annual mammograms and pap smears were performed in women and levels of prostate-specific antigen (PSA) were monitored in men.
In each of the 2 years, volunteers were seen monthly the first 3 months and every 3 months thereafter for a physical examination, documentation of medications and vital signs, routine laboratory tests and detailed questioning about possible side effects. Fasting blood glucose and hemoglobin Alc (HBAlc) were monitored for possible changes with MK-677 treatment, since increased blood glucose had been observed in previous studies (11;15).

[2] = Isokinetic muscle strength (Cybex II), knee and shoulder flexion and extension; assay type: in vivo, human; settings: 12 months
Description: Isokinetic Muscle Strength. Concentric force during flexion and extension of the knee and shoulder were determined using an isokinetic dynamometer Cybex II (CSM, Inc., Boston, Mass.). (11) Six repetitions of maximal effort over 90 degrees at 60 degrees/second were performed with the mean of the last 5 repetitions computed by proprietary software. Total work (Newton metres) was calculated by multiplying the mean per repetition by 5. Correction for Height and Gender. All strength and function measurements were analyzed per kg of skeletal muscle (ASM). Baseline arm ASM and leg ASM were used for shoulder and knee strength, respectively; baseline TASM (sum of arms and legs) was used for the function tests.

In the case of `CC(C)(N)C(=O)N[C@H](COCc1ccccc1)C(=O)N1CCC2(CC1)CN(S(C)(=O)=O)c1ccccc12.CS(=O)(=O)O` [MK-677, N-[1(R)-[(1,2-dihydro-1-methanesulfonylspiro[3H-indole-3,4′-piperidin]-1′-yl)carbonyl]-2-(phenylmethyloxy)ethyl]-2-amino-2-methylpropanamide methanesulfonate], the serious side effects ([1]; daily treatment) is reported as “without serious side effects”, the “mammograms, pap smears, routine laboratory tests” value ([1]; during the 2 years of the study) is reported as “no changes” and the “time for appetite to return to normal” value ([1]; in about one-half the subjects) is reported as ≤ 3 months. For the same molecule, the PSA levels ([1]; men) was “declined significantly”, the “transient muscle pain, subjects reporting” value ([1]; placebo 2/22) was 14/43 and the “mild, transient edema, subjects reporting” value ([1]; placebo 6/22) was 19/43. The “increase in appetite, subjects reporting” value ([1]; placebo 8/22) was 29/43, the “Joint pain, subjects reporting” value ([1]; placebo 17/22) was 25/43 and the “shoulder flexion total work vs. placebo” value [2] was “trend for prevention of this decline”. For the same molecule, the “total work in knee extension or flexion or in shoulder extension, between groups” value [2] was “no change”.
